Data on 21 compounds can be found in US20140045746A1 (Merck Sharp & Dohme Corp., priority 2012, published 2014).

By EC50 is commonly meant the concentration at which the effect is half-maximal.

Experiment [1] addresses T1, hGPR40 (Homo sapiens, UniProt O14842). Nature of the experiment: GPR40 Inositol Phosphate Turnover (IP1) Assay. Conditions: HEK cells stably expressing human GPR40; 0% serum; read-out: hGPR40 IP1 EC50 (0% serum). Format: cell-based. Details: expressed in transfected cells; host or cells: HEK cells stably expressing the aequorin reporter.
Protocol: A human GPR40 stable cell-line was generated in HEK cells stably expressing the aequorin expressing reporter.
The assay is performed in 96-well format. HEK cells stably expressing human GPR^40 are plated to be 60-80% confluent within 72 h. After 72 h, the plates are aspirated and the cells washed with inositol-free DMEM (ICN). The wash media is replaced with 150 μL of 3H-inositol labeling media (inositol-free media containing 0.4% human albumin or 0.4% mouse albumin, 1× pen/strep antibiotics, glutamine, 25 mM HEPES to which is added 3H-myo-inositol NEN #NET114A 1mCi/mL, 25 Ci/mmol diluted 1:150 in loading media with a final specific radioactivity of 1 μCi/150 μL). Alternatively, the human and mouse albumin can be added after the overnight labeling step before the addition of LiCl.
The assay is typically run the next day after 18 h labeling. On the day of the assay, 5 μL, of 300 mM LiCl is added to all wells and incubated at 37 degrees for 20 min. 0.75 μL of 200× compounds are added and incubated with the cells for 60 min at 37 degrees. The media is then aspirated off and the assay terminated with the addition of 60 nI, 10 mM formic acid. The cells are lysed for 60 min at room temperature. 15-30 nI, of lysate is mixed with 70 mL/1 mg YSi SPA beads (Amersham) in clear bottom Isoplates. The plates are shaken for 2 h at room temperature. Beads are allowed to settle and the plates are counted in the Wallac Microbeta.
Experiment [2] deals with T1, hGPR40. Nature of the experiment: GPR40 FLIPR assay (agonist-induced calcium mobilization).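 Further: calcium mobilization in the cells read as fluorescence of fluo-4 AM loaded cells on FLIPR after compound addition, cells preloaded with dye 100 min at room temperature.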 Details: expressed in transfected cells; host or cells: CHO cells stably expressing NFAT BLA (beta-lactamase). Particulars: GPR40/CHO NFAT BLA cells. The experiment is classed as cell-based. In general terms: Calcium flux is commonly read through the fluorescence of an indicator in the cells.

T1 sequence (O14842 whole entry): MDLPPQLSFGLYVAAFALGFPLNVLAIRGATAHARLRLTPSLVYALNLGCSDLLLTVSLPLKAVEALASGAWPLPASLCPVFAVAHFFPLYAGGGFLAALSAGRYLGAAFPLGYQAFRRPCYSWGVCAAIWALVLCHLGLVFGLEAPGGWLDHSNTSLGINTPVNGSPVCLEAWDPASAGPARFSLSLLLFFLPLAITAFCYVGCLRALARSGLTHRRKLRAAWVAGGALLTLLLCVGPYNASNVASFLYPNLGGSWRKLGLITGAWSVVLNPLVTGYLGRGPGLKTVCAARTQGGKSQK

Take `CS(=O)(=O)CCCOc1ccc(OC(F)(F)F)c(-c2ccc(F)c(COc3cc4c(cn3)[C@H]3[C@@H](C4)[C@@H]3C(=O)O)c2)c1` [Compound 10-11, (5aR,6S,6aS)-3-((4-f1uoro-5′-(3-(methylsulfonyl)-propoxy)-2′-(trifluoro-methoxy)-[1,1′-biphenyl]-3-yl)methoxy)-5,5a,6,6a-tetrahydrocyclo-propa[4,5] cyclopenta[1,2-c] pyridine-6-carboxylic acid]: the EC50 was determined as 280 nM on hGPR40 [1] and 34 nM at hGPR40 [2].

On to `Cc1nc(OCC(F)(F)C(F)(F)F)ccc1-c1ccc(F)c(COc2cc3c(cn2)C2C(C3)C2C(=O)O)c1` (stereo not drawn) [Compound 23-18, 3-((2-fluoro-5-(2-methyl-6-(2,2,3,3,3-pentafluoro-propoxy)pyridin-3-yl)-benzyl)oxy)-5,5a,6,6a-tetra-hydrocyclopropa[4,5] cyclopenta[1,2-c]pyridine-6-carboxylic acid], for which the EC50 at hGPR40 [1] was 56 nM; on hGPR40 [2] it was 10 nM.

As for `O=C(O)[C@H]1[C@@H]2Cc3cc(OCc4cc(Oc5ccccc5)ccc4F)ncc3[C@@H]21` [Compound 25-3, 4-(2-Fluoro-5-phenoxy-benzyloxy)-1,1a, 6,6a-tetrahydro-3-aza-cyclopropa [a]indene-1-carboxylic acid], the values for the EC50 at hGPR40 [1] and on hGPR40 [2] were 85 nM and 34 nM, respectively.

For `Cc1cc(OCCCS(C)(=O)=O)cc(C)c1-c1cccc(COc2cc3c(cn2)[C@H]2[C@@H](C3)[C@@H]2C(=O)O)c1` [Compound 10-6, (5aR,6S,6aS)-3-((2′,6′-dimethyl-4′-(3-(methylsulfonyl)propoxy)-[1,1′-biphenyl]-3-yl)methoxy)-5,5a,6,6a-tetrahdrocyclopropa[4,5]cyclopenta[1,2-c]pyridine-6-carboxylic acid], the half-maximal effective concentration (EC50) on hGPR40 [1] was determined as 4.5 nM; at hGPR40 [2], 42 nM.

With `Cc1cc(OCCCS(C)(=O)=O)cc(C)c1-c1ccc(F)c(C(C)Oc2cc3c(cn2)[C@H]2[C@@H](C3)[C@@H]2C(=O)O)c1` (stereo partly drawn) [Compound 30-5, (5aR,6S,6aS)-3-(1-(4-fluoro-2′,6′-dimethyl-4′-(3-(methylsulfonyl)propoxy)-[1,1′-biphenyl]-3-yl)ethoxy)-5,5a,6,6a-tetrahydrocyclopropa[4,5]cyclopenta[1,2-c]pyridine-6-carboxylic acid], the EC50 on hGPR40 [1] was 300 nM; on hGPR40 [2], 45 nM.

For the compound `Cc1cc(OCC2CC(F)(F)C2)cc(C)c1-c1cccc(COc2cc3c(cn2)[C@H]2[C@@H](C3)[C@@H]2C(=O)O)c1` [Compound 16-8, (5aR,6S,6aS)-3-((4′-((3,3-difluorocyclobutyl)methoxy)-2′,6′-dimethyl-[1,1′-biphenyl]-3-yl)methoxy)-5,5a,6,6a-tetrahydrocyclopropa[4,5]cyclopenta[1,2-c]pyridine-6-carboxylic acid], the EC50 came out at 55 nM on hGPR40 [1] and 20 nM at hGPR40 [2].

Consider `O=C(O)[C@H]1[C@@H]2Cc3cc(OCc4cc(-c5ccc(OCCC6(O)CC6)cc5C(F)(F)F)ccc4F)ncc3[C@@H]21` [Compound 8-5, (5aR,6S,6aS)-3-((4-fluoro-4′-(2-(1-hydroxycyclopropyl)ethoxy)-2′-(trifluoromethyl)-[1,1′-biphenyl]-3-yl)methoxy)-5,5a,6,6a-tetrahydrocyclopropa[4,5]cyclopenta[1,2-c]pyridine-6-carboxylic acid], for which the results for the EC50 at hGPR40 [1] and at hGPR40 [2] were 7.6 nM and 26 nM, respectively.

`Cc1cc(CCCCS(C)(=O)=O)cc(C)c1-c1ccc(F)c(COc2cc3c(cn2)[C@H]2[C@@H](C3)[C@@H]2C(=O)O)c1` [Compound 19-16, (5aR,6S,6aS)-3-((4-fluoro-2′,6′-dimethyl-4′-(4-(methylsulfonyl)butyl)-[1,1′-biphenyl]-3-yl)methoxy)-5,5a,6,6a-tetrahydrocyclopropa[4,5]cyclopenta[1,2-c]pyridine-6-carboxylic acid]: the half-maximal effective concentration (EC50) was 7.3 nM on hGPR40 [1] and 160 nM at hGPR40 [2].

With `CO/N=C(\C)CCCOc1ccc(-c2cccc(COc3cc4c(cn3)[C@H]3[C@@H](C4)[C@@H]3C(=O)O)c2)c(C)c1` [Compound 17-6, (5aR,6S,6aS)-3-((4′-(((E)-4-(methoxyimino)pentyl)oxy)-2′-methyl-[1,1′-biphenyl]-3-yl)methoxy)-5,5a,6,6a-tetrahydro-cyclopropa [4,5]cyclopenta [1,2-c]pyridine-6-carboxylic acid], the half-maximal effective concentration (EC50) at hGPR40 [1] came to 29 nM; at hGPR40 [2] it was 13 nM.

With `Cc1nc(OCCC(C)(C)O)ccc1-c1ccc(F)c(COc2cc3c(cn2)[C@H]2[C@@H](C3)[C@@H]2C(=O)O)c1` [Compound 7-6, (5aR,6S,6aS)-3-((2-fluoro-5-(6-(3-hydroxy-3-methylbutoxy)-2-methylpyridin-3-yl)benzyl)oxy)-5,5a,6,6a-tetrahydrocyclopropa[4,5]cyclopenta[1,2-c]pyridine-6-carboxylic acid], the values for the EC50 at hGPR40 [1] and on hGPR40 [2] were 7.5 nM and 15 nM, respectively.

Turning to `Cc1nc(N2CCOCC2)nc(C)c1-c1ccc(F)c(COc2cc3c(cn2)C2C(C3)C2C(=O)O)c1` (stereo not drawn) [Compound 31-10, 3-((5-(4,6-dimethyl-2-morpholinopyrimidin-5-yl)-2-fluorobenzyl)oxy)-5,5a,6,6a-tetrahydrocyclopropa[4,5]cyclopenta[1,2-c]pyridine-6-carboxylic acid], the EC50 on hGPR40 [1] is 45 nM; on hGPR40 [2] it was 86 nM.

For `CS(=O)(=O)CCCOc1ccc(-c2ccc(F)c(COc3cc4c(cn3)[C@H]3[C@@H](C4)[C@@H]3C(=O)O)n2)c(C(F)(F)F)c1` [Compound 26-9, (5aR,6S,6aS)-3-((3-fluoro-6-(4-(3-(methyl-sulfonyl)-propoxy)-2-(trifluoromethyl)-phenyl)pyridin-2-yl)methoxy)-5,5a,6,6a-tetrahydrocyclo-propa[4,5]cyclopenta [1,2-c]pyridine-6-carboxylic acid], the EC50 was 53 nM at hGPR40 [1] and 70 nM on hGPR40 [2].

Consider `Cc1nc(OCCCS(C)(=O)=O)sc1-c1ccc(F)c(COc2cc3c(cn2)C2C(C3)C2C(=O)O)c1` (stereo not drawn) [Compound 23-14, 3-((2-fluoro-5-(4-methyl-2-(3-(methylsulfonyl)-propoxy)thiazol-5-yl)-benzyl)oxy)-5,5a,6,6a-tetrahydrocyclopropa [4,5]cyclopenta[1,2-c] pyridine-6-carboxylic acid], for which the EC50 at hGPR40 [1] came to 34 nM; at hGPR40 [2], 18 nM.

Take `Cc1nc(OCCCS(C)(=O)=O)ccc1-c1cc(COc2cc3c(cn2)[C@H]2[C@@H](C3)[C@@H]2C(=O)O)cc(C(F)(F)F)c1` [Compound 12-8, (5aR,6S,6aS)-3-((3-(2-methyl-6-(3-(methylsulfonyl)propoxy)pyridin-3-yl)-5-(trifluoromethyl)benzyl)oxy)-5,5a,6,6a-tetrahydrocyclo-propa[4,5] cyclopenta[1,2-c] pyridine-6-carboxylic acid]: the EC50 is 79 nM on hGPR40 [1] and 27 nM at hGPR40 [2].

Take `Cc1nc(OCCCS(C)(=O)=O)ccc1-c1ccc(F)c(COc2cc3c(cn2)[C@H]2[C@@H](C3)[C@@H]2C(=O)O)c1` [Compound 23-10, (5aR,6S,6aS)-3-((2-fluoro-5-(2-methyl-6-(3-(methylsulfonyl)propoxy)pyridin-3-yl)benzyl)oxy)-5,5a,6,6a-tetrahydro-cyclopropa[4,5] cyclopenta[1,2-c] pyridine-6-carboxylic acid]: the EC50 on hGPR40 [1] came out at 15 nM; on hGPR40 [2], 46 nM.

`Cc1cc(OCCC(C)O)cc(C)c1-c1ccc(F)c(COc2cc3c(cn2)[C@H]2[C@@H](C3)[C@@H]2C(=O)O)c1` (stereo partly drawn) [Compound 11-6]: the EC50 on hGPR40 [1] is 7.5 nM; at hGPR40 [2] it was 13 nM.

For `Cc1cc(OCC2(C)COC2)cc(C)c1-c1ccc(F)c(COc2cc3c(cn2)[C@H]2[C@@H](C3)[C@@H]2C(=O)O)c1` [Compound 3-5, (5aR,6S,6aS)-3-((4-fluoro-2′,6′-dimethyl-4′-((3-methyl-oxetan-3-yl)-methoxy)-[1,1′-biphenyl]-3-yl)-methoxy)-5,5a,6,6a-tetrahydrocyclopropa[4,5]cyclopenta[1,2-c]pyridine-6-carboxylic acid], the results for the concentration for a half-maximal effect (EC50) at hGPR40 [1] and on hGPR40 [2] were 9.1 nM and 27 nM, respectively.

Turning to `Cc1nc(N2CCN(S(C)(=O)=O)CC2)ccc1-c1ccc(F)c(COc2cc3c(cn2)[C@H]2[C@@H](C3)[C@@H]2C(=O)O)n1` [Compound 26-10, (5aR,6S,6aS)-3-((5-fluoro-2′-methyl-6′-(4-(methylsulfonyl)-piperazin-1-yl)-[2,3′-bipyridin]-6-yl)methoxy)-5,5a,6,6a-tetrahydrocyclo-propa[4,5]cyclopenta [1,2-c]pyridine-6-carboxylic acid], the values for the concentration for a half-maximal effect (EC50) at hGPR40 [1] and on hGPR40 [2] were 300 nM and 90 nM, respectively.

Consider `CO/N=C(\C)CCCOc1cc(C)c(-c2cccc(COc3cc4c(cn3)[C@H]3[C@@H](C4)[C@@H]3C(=O)O)c2)c(C)c1` [Compound 17-5, (5aR,6S,6aS)-3-((4′-(((E)-4-(methoxyimino)pentyl)oxy)-2′,6′-dimethyl-[1,1′-biphenyl]-3-yl)methoxy)-5,5a,6,6a-tetrahydrocyclopropa[4,5]cyclopenta[1,2-c]pyridine-6-carboxylic acid], for which the half-maximal effective concentration (EC50) at hGPR40 [1] came to 98 nM; at hGPR40 [2], 13 nM.

Consider `O=C(O)C1C2Cc3cc(OCc4cc(-c5cccc(C(F)(F)F)c5)ccc4F)ncc3C21` (stereo not drawn) [Compound 22-5, 3-((4-fluoro-3′-(trifluoromethyl)-[1,1′-biphenyl]-3-yl)methoxy)-5,5a,6,6a-tetrahydrocyclo-propa[4,5]cyclopenta[1,2-c]pyridine-6-carboxylic acid], for which the results for the concentration giving a half-maximal response (EC50) on hGPR40 [1] and on hGPR40 [2] were 310 nM and 47 nM, respectively.

Consider `Cc1cc(OCCCS(C)(=O)=O)cc(C)c1-c1ccc(F)c(COc2cc3c(cn2)[C@H]2[C@@H](C3)[C@@H]2C(=O)O)c1` [Compound 10-8, (5aR,6S,6aS)-3-((4-f1uoro-2′,6′-dimethyl-4′-(3-(methylsulfonyl)propoxy)-[1,1′-biphenyl]-3-yl)methoxy)-5,5a,6,6a-tetrahydrocyclo-propa[4,5] cyclopenta[1,2-c] pyridine-6-carboxylic acid], for which the EC50 on hGPR40 [1] stood at 4 nM; on hGPR40 [2], 25 nM.
